Patent US8992891B2, “Therapeutic approaches for treating CMT and related disorders” (Pharnext, priority 2007, dated 2015)

How the values were obtained:
[1] = system: PMP22 mRNA; assay: PMP22 mRNA level by quantitative RT-PCR after drug stimulation of rat Schwann cell primary culture; type: cell-based; parameters: key: +: significantly decreases PMP22 levels compared to control; details: rat primary Schwann cells, drug incubation 24 hrs
Experimental: After cells being platted in 12 well-dishes, the medium is replaced by a defined medium consisting in a mix of DMEM-F12 (Invitrogen #21331020) complemented by 1% of N2 supplement (Invitrogen #17502), 1% L-Glutamine (Invitrogen #25030024) 2.5% FBS (Sciencell #0025), 0.02 μg/ml of corticosterone (Sigma #C2505), 4 μM Forskolin and 50 μg/ml of gentamycin. Growth factors are not added to this medium, to promote SC differentiation
24 hours later, the medium is replaced by a defined medium (DMEM-F12) complemented with 1% Insulin-Transferrin-Selenium-X (ITS, Invitrogen #51300), 16 μg/ml of Putrescine (Sigma #P5780), 0.02 μg/ml of corticosterone and 50 μg/ml of gentamicin. At this step, neither progesterone nor forskolin are present in the medium.
One day later, Schwann cells are stimulated by combinations of drugs or drugs alone during 24 hrs (3 wells/condition). The preparation of each compound is performed just prior to its addition to the cell culture medium.
Drugs are added to a defined medium composed of DMEM-F12, with 1% Insulin-Transferrin-Selenium-X (ITS, Invitrogen #51300), 16 μg/ml of Putrescine, 0.02 μg/ml of corticosterone, 10 nM Progesterone and 50 μg/ml of gentamicin. The absence of Forskolin during drug stimulation avoids adenylate cyclase saturation.
Quantitative RT-PCR is used to compare the levels of PMP22 mRNA after drug stimulation, relative with housekeeping Ribosomal L13A mRNA in rat Schwann cell primary culture.
After rinsing with cold sterilized PBS, total RNAs from each cell sample are extracted and purified from SC using the Qiagen RNeasy micro kit (Qiagen #74004). Nucleic acids are quantified by Nanodrop spectrophotometer using 1 μl of RNA sample. The RNA integrity is determined through a BioAnalyzer (Agilent) apparatus.
RNAs are reverse-transcribed into cDNA according to standard protocol. cDNA templates for PCR amplification are synthesized from 200 ng of total RNA using SuperScript II reverse-transcriptase (Invitrogen #18064-014) for 60 min at 42° C. in the presence of oligo(dT), in a final volume of 20 μl.
cDNAs are subjected to PCR amplification using the ? LightCycler® 480 ? system (Roche Molecular Systems Inc.) Each cDNA are diluted five times before being used for PCR amplification. 2.5 μl of this cDNAs enters the PCR reaction solution (final volume of 10 μl). Preliminary experiments ensured that quantitation was done in the exponential phase of the amplification process for both sequences and that expression of the reference gene was uniform in the different culture conditions.
PCR reaction is performed by amplification of 500 nM of forward primer of rat PMP22 (NM_017037), 5-GGAAACGCGAATGAGGC-3 (SEQ ID NO: 1), and 500 nM of reverse primer 5-GTTCTGTTTGGTTTGGCTT-3 (SEQ ID NO: 2) (amplification of 148-bp). A 152-bp fragment of the RPL13A ribosomal (NM_173340) RNA is amplified in parallel in separate reactions for normalization of the results by using 500 nM of forward primer 5-CTGCCCTCAAGGTTGTG-3 (SEQ ID NO: 3), and 500 nM of reverse primer 5-[…]-3 (SEQ ID NO: 4).
We used FRET chemistry to perform RT-Q-PCR analysis. FRET probes are composed of 0.3 μM of Pmp22-FL-5-[…] (SEQ ID NO: 5) or Rpl13A-FL-5-TCGGGTGGAAGTACCAGCC (SEQ ID NO: 6), labelled at their 3′ end with a donor fluorophore dye (Fluorescein). 0.15 μM Red640 probes are defined as follows: Pmp22-red-5′-[…]- (SEQ ID NO: 7) or Rpl13A-red-5′-[…] (SEQ ID NO: 8), labelled at their 5′ end with an acceptor fluorophore dye (Rhodamine Red 640).
Each PCR reaction contained 2.5 μl cDNA template in a final volume of 10 μl of master mix kit (Roche #04-887301001).
The following PCR conditions are used: 10 sec at 95° C., 10 sec at 63° C. and 12 sec at 72° C. and 30 sec at 40° C. (Forty amplification cycles). The relative levels of PMP22 gene expression is measured by determining the ratio between the products generated from the target gene PMP22 and the endogenous internal standard RPL13A. […]

[2] = system: PMP22 protein; assay: PMP22 protein expression analysis by flow cytometry (FACS) in Schwann cells; type: cell-based, rat; parameters: key to Protein (PMP22 expression decrease): +: significantly decreases PMP22 levels compared to control; details: rat primary Schwann cells, FACS, 24 hrs
Experimental: One day later, Schwann cells are stimulated by combinations of drugs or drugs alone during 24 hrs (3 wells/condition). The preparation of each compound is performed just prior to its addition to the cell culture medium. Drugs are added to a defined medium composed of DMEM-F12, with 1% Insulin-Transferrin-Selenium-X (ITS, Invitrogen #51300), 16 μg/ml of Putrescine, 0.02 μg/ml of corticosterone, 10 nM Progesterone and 50 μg/ml of gentamicin. The absence of Forskolin during drug stimulation avoids adenylate cyclase saturation. 8 hrs, 24 hrs and 48 hrs after drugs incubation, supernatants are recovered, centrifuged and frozen. SC are detached with trypsin-EDTA. As soon as the majority of cells are in suspension, the trypsin is neutralised using DMEM with 10% FCS. Supernatants with cells are recovered and centrifuged. The pellets of cells are transferred in micro tubes, washed in PBS once and fixed with a specific solution (AbCys #Reagent A BUF09B). 10 minutes later, cells are rinsed once with PBS and kept at 4° C. Five days after cell fixation, all cell preparations with different incubation times are labelled using the following protocol. […] Cells are then centrifuged at 7000 rpm for 5 minutes and cell pellets are rinsed once in PBS. A secondary antibody is added, coupled to Alexa Fluor 488 (goat anti-rabbit IgG, Molecular Probes #A11008, 1/100), for one hour at room temperature. Cells are then centrifuged at 7000 rpm for 5 minutes and cell pellets are rinsed once in PBS. The labelling is increased adding a tertiary antibody coupled to Alexa Fluor 488 (chicken anti-goat IgG, Molecular Probes #A21467, 1/100) for one hour incubation, at room temperature. Cells are then rinsed once in PBS. Control without any antibody (unlabelled cells) is performed to determine the level of autofluorescence and adapted the sensitivity of the photomultiplicators. Control with both secondary and tertiary antibodies but without primary antibody, is performed to assess non specific binding of antibodies. Data acquisition and analysis are performed with a FACS Array cytometer and FACS Array software (Becton Dickinson) on 5000 cells. Forward Scatter (FSC) correlated with cell volume (size) and Side Scatter (SSC) depending on inner complexity of cells (granularity) are analysed. For expression of PMP22, analysis is performed within the total cells and percent of positive cells is calculated. Positive cells are cells with fluorescence intensity higher than the control with secondary antibody. We tested the ability of some drugs to inhibit PMP22 protein expression (FACS analysis). […] The results of the action of some individual drugs on the protein level of PMP22 are also shown on table 1 above.

[3] = system: PMP22; details: transgenic rodent models with over expression of PMP22; cited from earlier work

SMILES | mRNA (PMP22 expression decrease) [1] | Protein (PMP22 expression decrease) [2] | PMP22 expression in the transgenic animals [3]
NCC(CC(=O)O)c1ccc(Cl)cc1 (stereo not drawn) [Baclofen] | + |  | 
O=C(O)Cc1ccccc1Nc1c(Cl)cccc1Cl [Diclofenac] | + | + | 
CCN(CC)C(=S)SSC(=S)N(CC)CC [Disulfiram] | + |  | 
C[C@]12CC[C@@H]3c4ccc(O)cc4CC[C@H]3[C@@H]1CC[C@@H]2O [Estradiol-b, Estradiol] | + |  | 
CC(C)OC(=O)C(C)(C)Oc1ccc(C(=O)c2ccc(Cl)cc2)cc1 [Fenofibrate] | + |  | 
CC(C(=O)O)c1ccc(-c2ccccc2)c(F)c1 (stereo not drawn) [Flurbiprofen] | + | + | 
O=C(CCCN1CCC(O)(c2ccc(Cl)cc2)CC1)c1ccc(F)cc1 [Haloperidol] | + |  | 
COc1ccc2c(c1)c(CC(=O)O)c(C)n2C(=O)c1ccc(Cl)cc1 [Indomethacin] | + | + | 
CC(C)NCC(O)c1ccc(O)c(O)c1 (stereo not drawn) [Isoproterenol] | + |  | 
CC(C(=O)O)c1cccc(C(=O)c2ccccc2)c1 (stereo not drawn) [Ketoprofen] | + | + | 
Cc1cnc(NC(=O)C2=C(O)c3ccccc3S(=O)(=O)N2C)s1 [Meloxicam] | + | + | 
CC#C[C@]1(O)CC[C@H]2[C@@H]3CCC4=CC(=O)CCC4=C3[C@@H](c3ccc(N(C)C)cc3)C[C@@]21C [Mifepristone] | + |  | 
CC(C)(O)c1ccccc1CC[C@@H](SCC1(CC(=O)O)CC1)c1cccc(/C=C/c2ccc3ccc(Cl)cc3n2)c1 [Montelukast] | + |  | 
O=C1CC[C@@]2(O)[C@H]3Cc4ccc(O)c5c4[C@@]2(CCN3CC2CC2)[C@H]1O5 [Naltrexone] | + |  | 
CCC(C)(C)C(=O)O[C@H]1C[C@@H](C)C=C2C=C[C@H](C)[C@H](CC[C@@H]3C[C@@H](O)CC(=O)O3)[C@H]21 [Simvastatin] | + |  | 
OC[C@@H](O)[C@@H](O)[C@H](O)[C@@H](O)CO [Sorbitol, D-Sorbitol] | + |  | 
C[C@]12CC[C@H]3[C@@H](CC[C@@]45O[C@@H]4C(O)=C(C#N)C[C@]35C)[C@@H]1CC[C@@H]2O [Trilostane] | + |  | 
O=C1O[C@H]([C@@H](O)CO)C(O)=C1O [ascorbic acid] |  |  | decreased this expression
CN(C)c1ccc([C@H]2C[C@]3(C)[C@@H](CC[C@]3(O)CCCO)[C@@H]3CCC4=CC(=O)CCC4=C32)cc1 [onapristone] |  |  | decreased this expression
